The record followed here is patent US8822503B2, “2-pyridone compounds” (Taisho Pharmaceutical Co., Ltd, priority 2009, dated 2014).

Structures are written as SMILES.

The assay addresses T1, human liver GK (Homo sapiens, UniProt P35557).
T1 construct: GST (glutathione S-transferase) (N); made in house; host or cells: E. coli
T1 sequence (P35557 1-466 isoform P35557-2): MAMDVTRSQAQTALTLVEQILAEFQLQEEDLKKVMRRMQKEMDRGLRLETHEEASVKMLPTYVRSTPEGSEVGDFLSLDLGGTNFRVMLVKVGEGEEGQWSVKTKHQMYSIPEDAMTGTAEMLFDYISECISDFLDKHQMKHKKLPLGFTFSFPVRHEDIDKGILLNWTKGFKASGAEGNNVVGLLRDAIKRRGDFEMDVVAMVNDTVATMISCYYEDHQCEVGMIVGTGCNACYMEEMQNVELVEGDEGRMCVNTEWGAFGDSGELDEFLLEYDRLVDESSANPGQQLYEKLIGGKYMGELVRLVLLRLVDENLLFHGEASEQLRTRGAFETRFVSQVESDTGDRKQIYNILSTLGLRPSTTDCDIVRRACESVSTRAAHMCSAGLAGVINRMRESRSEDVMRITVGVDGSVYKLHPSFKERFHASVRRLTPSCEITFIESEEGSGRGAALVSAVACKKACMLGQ
Kind of assay: GK activation test. The assay is classed as biochemical. The conditions noted are these: test compound concentration needed to activate 50% of maximum activation ability; 4 mM 14C-labeled glucose, 2 mM ATP, room temperature, 20 minutes. The essentials:
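GST-tagged human liver GK from E. coli (0.24 μg/well) with 4 mM 14C-glucose, 2 mM ATP in Hepes-KOH pH 7.1, KCl, MgCl2, DTT, 1% DMSO, 20 min room temperature. Labeled glucose 6-phosphate captured on anion resin, eluted and counted. EC50 = concentration giving half of maximal activation.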
For orientation: EC50 means the midpoint of the concentration-response curve. A higher EC50 goes with a need for much substance. `C[C@H](/C=C(\c1ccc(S(=O)(=O)C2CC2)cc1)c1ccc(C(F)(F)F)c(=O)[nH]1)CO` [Example 1-102, 6-{(1E,3R)-1-[4-(Cyclopropylsulfonyl)phenyl]-4-hydroxy-3-methylbut-1-en-1-yl}-3-(trifluoromethyl)pyridin-2(1H)-one] came in with an EC50 of 500 to 3000 nM.

The compound `CCOc1ccc(C(C[C@H]2CCC(=O)N2)c2ccc(Cl)c(=O)[nH]2)cc1Cl` (stereo partly drawn) [Example 4-3, 3-Chloro-6-{1-(3-chloro-4-ethoxyphenyl)-2-[(2R)-5-oxopyrrolidin-2-yl]ethyl}pyridin-2(1H)-one] gave a concentration for a half-maximal effect (EC50) of 500 to 3000 nM.

`O=C1CC[C@H](/C=C(\c2ccc(Cl)c(C(F)(F)F)c2)c2ccc(C3CC3)c(=O)[nH]2)N1` [Example 4-105, 6-{(E)-1-[4-Chloro-3-(trifluoromethyl)phenyl]-2-[(2R)-5-oxopyrrolidin-2-yl]ethenyl}-3-cyclopropylpyridin-2(1H)-one] had a 50% effective concentration (EC50) of 10 to 500 nM.

Take `CC(C)Cc1ccc(/C(=C\[C@H]2CCC(=O)N2)c2ccc(Cl)c(=O)[nH]2)cc1` [Example 4-29, 3-Chloro-6-{(E)-1-[4-(2-methylpropyl)phenyl]-2-[(2R)-5-oxopyrrolidin-2-yl]ethenyl}pyridin-2(1H)-one]: the concentration giving a half-maximal response (EC50) lay within 500 to 3000 nM.

Compound `CCc1ccc(C(C[C@H]2CCC(=O)N2)c2ccc(Cl)c(=O)[nH]2)cc1Cl` (single isomer, unassigned) [Example 4-324] displayed an EC50 of 500 to 3000 nM.

In the case of `CN(C)CCCCc1ccc(/C(=C/[C@H]2CCC(=O)N2)c2ccc(C(C)(C)C)cc2)[nH]c1=O` [Example 4-191, 6-{(E)-1-(4-tert-Butylphenyl)-2-[(2R)-5-oxopyrrolidin-2-yl]ethenyl}-3-[4-(dimethylamino)butyl]pyridin-2(1H)-one], the concentration giving a half-maximal response (EC50) was in the range of 500 to 3000 nM.

For `CC(C)(C)c1ccc(/C(=C\Cn2cnccc2=O)c2ccc(Cl)c(=O)[nH]2)cc1` [Example 6-34, 3-[(2E)-3-(4-tert-Butylphenyl)-3-(5-chloro-6-oxo-1,6-dihydropyridin-2-yl)prop-2-en-1-yl]pyrimidin-4(3H)-one], the EC50 was 500 to 3000 nM.

With `Cc1ccc(/C(=C/CC2CCCC2)c2ccc(SC3CC3)cc2)[nH]c1=O` [Example 1-36, 6-{(1E)-3-Cyclopentyl-1-[4-(cyclopropylsulfanyl)phenyl]prop-1-en-1-yl}-3-methylpyridin-2(1H)-one], the EC50 lay in the range of 10 to 500 nM.

`CC(C)(C)c1ccc(/C(=C\CN2CCCS2(=O)=O)c2ccc(Cl)c(=O)[nH]2)cc1` [Example 6-7, 6-[(1E)-1-(4-tert-Butylphenyl)-3-(1,1-dioxido-1,2-thiazolidin-2-yl)prop-1-en-1-yl]-3-chloropyridin-2(1H)-one] had a half-maximal effective concentration (EC50) of 500 to 3000 nM.

In turn, `CC(C)(C)c1ccc(/C(=C\[C@H]2CCC(=O)N2)c2ccc(Cl)c(=O)[nH]2)cc1` [Example 4-18, 6-{(E)-1-(4-tert-Butylphenyl)-2-[(2R)-5-oxopyrrolidin-2-yl]ethenyl}-3-chloropyridin-2(1H)-one] returned an EC50 of 10 to 500 nM.

`CCCc1ccc(C(CC2CCCC2)c2ccc(SC)cc2)[nH]c1=O` (centres unmarked) [Example 2-8, 6-{2-Cyclopentyl-1-[4-(methylsulfanyl)phenyl]ethyl}-3-propylpyridin-2(1H)-one] showed a concentration for a half-maximal effect (EC50) of 500 to 3000 nM.

`Cc1ccc(/C(=C/CC2CCCC2)c2ccc(S(=O)(=O)C3CC3)cc2)[nH]c1=O` [Example 1-37, 6-{(1E)-3-Cyclopentyl-1-[4-(cyclopropylsulfonyl)phenyl]prop-1-en-1-yl}-3-methylpyridin-2(1H)-one] had an EC50 of 10 to 500 nM.

The compound `Cc1ccc(/C(=C/C2(CO)CC2)c2ccc(S(=O)(=O)C3CC3)cc2)[nH]c1=O` [Example 1-100, 6-{(E)-1-[4-(Cyclopropylsulfonyl)phenyl]-2-[1-(hydroxymethyl)cyclopropyl]ethenyl}-3-methylpyridin-2(1H)-one] had an EC50 of 3000 to 10000 nM.

As for `CSc1ccc(/C(=C\CCO)c2ccc(C3CC3)c(=O)[nH]2)cc1` [Example 1-92, 3-Cyclopropyl-6-{(1E)-4-hydroxy-1-[4-(methylsulfanyl)phenyl]but-1-en-1-yl}pyridin-2(1H)-one], the EC50 was in the range of 3000 to 10000 nM.

In turn, `CCCOc1ccc(/C(=C/[C@H]2CCC(=O)N2)c2ccc(C(C)(C)C)cc2)[nH]c1=O` [Example 4-167, 6-{(E)-1-(4-tert-Butylphenyl)-2-[(2R)-5-oxopyrrolidin-2-yl]ethenyl}-3-propoxypyridin-2(1H)-one] yielded a concentration for a half-maximal effect (EC50) of 500 to 3000 nM.

For the compound `CCOc1ccc(C(C[C@H]2CCC(=O)N2)c2ccc(C3CC3)c(=O)[nH]2)cc1` (single isomer, unassigned) [Example 4-328], the EC50 lay in the range of 500 to 3000 nM.

Regarding `CSc1ccc(/C(=C\CCNC(C)=O)c2ccc(C3CC3)c(=O)[nH]2)cc1` [Example 1-94, N-{(3E)-4-(5-Cyclopropyl-6-oxo-1,6-dihydropyridin-2-yl)-4-[4-(methylsulfanyl)phenyl]but-3-en-1-yl}acetamide], the EC50 was in the range of 3000 to 10000 nM.

`O=C1CC[C@H](CC(c2ccc(OC3CC3)c(Cl)c2)c2ccc(C3CC3)c(=O)[nH]2)N1` (single isomer, unassigned) [Example 4-344] returned a concentration for a half-maximal effect (EC50) of 10 to 500 nM.

Compound `Cc1ccc(/C(=C\[C@H]2CCC(=O)N2)c2ccc(Cl)c(=O)[nH]2)cc1` [Example 4-256, 3-Chloro-6-{(E)-1-(4-methylphenyl)-2-[(2R)-5-oxopyrrolidin-2-yl]ethenyl}pyridin-2(1H)-one] yielded a 50% effective concentration (EC50) of 500 to 3000 nM.

Compound `Cc1ccc(/C(=C/C2CCOCC2)c2ccc(S(C)(=O)=O)c(Cl)c2)[nH]c1=O` [Example 1-56, 6-{(E)-1-[3-Chloro-4-(methylsulfonyl)phenyl]-2-(tetrahydro-2H-pyran-4-yl)ethenyl}-3-methylpyridin-2(1H)-one] came in with a concentration giving a half-maximal response (EC50) of 500 to 3000 nM.

Take `CC(C)Oc1ccc(C(C[C@H]2CCC(=O)N2)c2ccc(C3CC3)c(=O)[nH]2)cc1Cl` (single isomer, unassigned) [Example 4-323]: the concentration for a half-maximal effect (EC50) was in the range of 3000 to 10000 nM.

`Cc1ccc(/C(=C/C2CCCC2)c2ccc(S(=O)(=O)N(C)C)cc2)[nH]c1=O` [Example 1-14, 4-[(E)-2-Cyclopentyl-1-(5-methyl-6-oxo-1,6-dihydropyridin-2-yl)ethenyl]-N,N-dimethylbenzenesulfonamide] showed an EC50 of 10 to 500 nM.

Consider `CCN(CC)CCCS(=O)(=O)c1ccc(/C(=C\C2CCCC2)c2ccc(C(F)(F)F)c(=O)[nH]2)cc1` [Example 1-41, 6-[(E)-2-Cyclopentyl-1-(4-{[3-(diethylamino)propyl]sulfonyl}phenyl)ethenyl]-3-(trifluoromethyl)pyridin-2(1H)-one], for which the EC50 lay within 500 to 3000 nM.

In the case of `O=C1CC[C@H](/C=C(\c2ccc(F)nc2)c2ccc(C3CC3)c(=O)[nH]2)N1` [Example 4-121, 3-Cyclopropyl-6-{(E)-1-(6-fluoropyridin-3-yl)-2-[(2R)-5-oxopyrrolidin-2-yl]ethenyl}pyridin-2(1H)-one], the EC50 lay in the range of 3000 to 10000 nM.

`CC(C)(C)c1ccc(/C(=C\[C@H]2CCC(=O)N2)c2ccc(C3CCCC3)c(=O)[nH]2)cc1` [Example 4-194, 6-{(E)-1-(4-tert-Butylphenyl)-2-[(2R)-5-oxopyrrolidin-2-yl]ethenyl}-3-cyclopentylpyridin-2(1H)-one] displayed a 50% effective concentration (EC50) of 10 to 500 nM.

`Cc1ccc([C@@]2(c3ccc(S(C)(=O)=O)cc3)C[C@@H]2C2CCCC2)[nH]c1=O` (relative stereo) [Example 3-4, trans-6-{2-Cyclopentyl-1-[4-(methylsulfonyl)phenyl]cyclopropyl}-3-methylpyridin-2(1H)-one] had a concentration giving a half-maximal response (EC50) of 3000 to 10000 nM.

In turn, `CCOc1ccc(/C(=C\[C@H]2CCC(=O)N2)c2ccc(Cl)c(=O)[nH]2)cc1F` [Example 4-49, 3-Chloro-6-{(E)-1-(4-ethoxy-3-fluorophenyl)-2-[(2R)-5-oxopyrrolidin-2-yl]ethenyl}pyridin-2(1H)-one] returned an EC50 of 500 to 3000 nM.

`Cc1ccc(C(CCC2CCCC2)c2ccc(S(=O)(=O)C3CC3)cc2)[nH]c1=O` (centres unmarked) [Example 2-15, 6-{3-Cyclopentyl-1-[4-(cyclopropylsulfonyl)phenyl]propyl}-3-methylpyridin-2(1H)-one]: the EC50 was 10 to 500 nM.

In turn, `O=C1CC[C@H](/C=C(\c2ccc(C(F)(F)F)c(Cl)c2)c2ccc(C3CC3)c(=O)[nH]2)N1` [Example 4-103, 6-{(E)-1-[3-Chloro-4-(trifluoromethyl)phenyl]-2-[(2R)-5-oxopyrrolidin-2-yl]ethenyl}-3-cyclopropylpyridin-2(1H)-one] displayed an EC50 of 10 to 500 nM.

The compound `CCN(CC)CCCCc1ccc(/C(=C\C2CCCC2)c2ccc(C(F)(F)F)c(=O)[nH]2)cc1` [Example 1-39, 6-[(E)-2-Cyclopentyl-1-{4-[4-(diethylamino)butyl]phenyl}ethenyl]-3-(trifluoromethyl)pyridin-2(1H)-one] returned an EC50 of 500 to 3000 nM.

`Cc1cc(/C(=C\[C@H]2CCC(=O)N2)c2ccc(C3CC3)c(=O)[nH]2)ccc1Cl` [Example 4-107, 6-{(E)-1-(4-Chloro-3-methylphenyl)-2-[(2R)-5-oxopyrrolidin-2-yl]ethenyl}-3-cyclopropylpyridin-2(1H)-one]: the EC50 lay within 10 to 500 nM.

In the case of `CN1C(=O)CC[C@@H]1/C=C(\c1ccc(C(C)(C)C)cc1)c1ccc(Cl)c(=O)[nH]1` [Example 4-146, 6-{(E)-1-(4-tert-Butylphenyl)-2-[(2R)-1-methyl-5-oxopyrrolidin-2-yl]ethenyl}-3-chloropyridin-2(1H)-one], the concentration for a half-maximal effect (EC50) was in the range of 10 to 500 nM.
